Tested on: PA/PB1 HEK293T (Teton) cell line
Test: Dox-controlled inducible PA/PB1 expression, luciferase activity and Western blotting
Type: cell-based
Conditions: Dox 300 ng/mL, 16 h, PA/PB1 HEK293T (Teton) cells
Method: To detect the influence of Doxycycline (Dox) (purchased from Sigma) on controlled inducible PA/PB1 expression, 100,000 PA/PB1 HEK293T (Teton) cells and 300 μL DMEM complete medium were plated in each well of a 48 well plate. After 24 h, Dox was added at concentrations of 0, 10, 30, 100, 300 ng/mL respectively. After 16 h, culture medium in supernatant was removed, and lysis was performed on ice for 10 min using 80 μL renilla luciferase lysate (purchased from Promega, E2820), lysate was mixed by pipetting, 50 μL cell lysate was transferred into a plate for luciferase detection (purchased from PE), 20 μL renilla luciferase substrate (purchased from Promega, E2820) was added into each well, and luciferase activity was detected by a microplate reader (purchased from Bio-Tek, SynergyH1). The remaining 30 μL lysate was used for immune blotting (Western Blotting), the primary antibody used was Anti-Gluc (purchased from NEB), the secondary antibody used was HRP-conjugated Donkey Anti-Rabbit (purchased from Jackson), and expression of PA/PB1 with Gluc fusion tag could be detected by a scanner (purchased from Bio-rad).
When Dox was not added into the PA/PB1 HEK293T (Teton) cell line, luciferase activity of PA/PB1 interaction was the background. […] When Dox was added at a concentration of 300 ng/mL, the difference between its signal value and the background signal value was up to 200 times.

Structure (SMILES): C[C@H]1c2cccc(O)c2C(=O)C2=C(O)[C@]3(O)C(=O)C(C(N)=O)=C(O)[C@@H](N(C)C)[C@@H]3[C@@H](O)[C@@H]21 [Dox, Doxycycline]
- difference between signal value and background signal value (luciferase activity of PA/PB1 interaction): up to 200 times

Source: patent US10526634B2, “Cell line for screening influenza virus polymerase assembly inhibitor and construction method thereof” (Suzhou Institute of Systems Medicine, priority 2015, dated 2020)
